# Test results reported in patent US10800784B2, “Nitrogen-containing heterocyclic amide compound and pharmaceutical use thereof” (Japan Tobacco Inc., priority 2018, dated 2020).
# Experiments:
# human PDHK1 (hPDHK1) = human PDHK1 (hPDHK1) (Homo sapiens (Human), UniProt Q15118); assay: Inhibitory action of PDHK1 activity in vitro (residual PDH activity after PDHK reaction); type: biochemical; settings: for IC50: PDH/hPDHK1 complex solution, PDHK reaction at room temperature for 45 min, NADH absorbance at 340 nm, read-out: hPDK1 IC50; for inhibition at 0.003 µM: at 3 nmol/L, shown when IC50 value could not be calculated, read-out: hPDHK1 inhibitory rate at the lowest concentration of the test compound
# Sequence of human PDHK1 (hPDHK1) (Q15118 29-436): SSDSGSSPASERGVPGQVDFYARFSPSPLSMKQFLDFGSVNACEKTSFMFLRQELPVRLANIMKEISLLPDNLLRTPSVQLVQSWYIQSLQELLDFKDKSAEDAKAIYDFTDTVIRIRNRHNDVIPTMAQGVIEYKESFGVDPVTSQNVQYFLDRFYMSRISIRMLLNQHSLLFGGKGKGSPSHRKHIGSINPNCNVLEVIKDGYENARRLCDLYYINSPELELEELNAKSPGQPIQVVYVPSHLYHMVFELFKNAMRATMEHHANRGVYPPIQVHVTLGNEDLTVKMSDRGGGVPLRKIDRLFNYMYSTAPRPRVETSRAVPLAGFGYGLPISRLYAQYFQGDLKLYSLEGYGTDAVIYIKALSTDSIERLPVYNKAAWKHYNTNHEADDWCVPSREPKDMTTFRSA
# Outline: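 N-FLAG hPDHK1 (E. coli-expressed, 0.5 μg/mL) precomplexed overnight at 4 °C with porcine heart PDH (0.025 U/mL), then reacted 45 min at room temperature with compound and ATP (0.353 μmol/L as added) in MOPS pH 7.0 buffer. Residual PDH activity after 90 min with pyruvate, CoA, NAD, TPP read as NADH at 340 nm.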
# human PDHK2 (hPDHK2) = human PDHK2 (hPDHK2) (Homo sapiens (Human), UniProt Q15119); assay: Inhibitory action of PDHK2 activity in vitro (residual PDH activity after PDHK reaction); type: biochemical; settings: for IC50: PDH/hPDHK2 complex solution, PDHK reaction at room temperature for 45 min, NADH absorbance at 340 nm, read-out: kPDK2 IC50
# Outline: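 Indirect assay: FLAG-tagged hPDHK2 (0.5 μg/mL) precomplexed overnight at 4 °C with PDH (0.025 U/mL), then kinase reaction with compound and ATP 45 min at room temperature, pH 7.0 MOPS buffer. Residual PDH activity measured after 90 min with pyruvate, CoA, NAD, TPP as NADH absorbance at 340 nm, corrected for compound effect on PDH-only blank.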
SMILES,IC50 (human PDHK1 (hPDHK1)) [nM],IC50 (human PDHK2 (hPDHK2)) [nM],inhibition at 0.003 µM (human PDHK1 (hPDHK1)) [%],"hPDHK2 inhibitory rate at the lowest concentration of the test compound (human PDHK2 (hPDHK2); lowest concentration of the test compound in the assay (<3 nmol/L), shown when IC50 value could not be calculated) [%]"
C[C@H]1CN(C(=O)c2cnc(-c3ccccc3)nc2)Cc2cnc([C@@](C)(O)C(F)(F)F)n21 [Example 56],10,10,–,–
C[C@H]1CN(C(=O)c2ccc(=O)n(-c3ccc(F)cc3)c2)Cc2cnc([C@@](C)(O)C(F)(F)F)n21 [Example 57],11,10,–,–
C[C@H]1CN(C(=O)C2CCC(n3cccn3)CC2)Cc2cnc([C@@](C)(O)C(F)(F)F)n21 (stereo partly shown) [Example 60],14,9,–,–
C[C@H]1CN(C(=O)c2cc(-c3ccc(F)cc3C#N)nn2C)Cc2cnc([C@@](C)(O)C(F)(F)F)n21 [Example 61],3,5,–,–
C[C@H]1CN(C(=O)c2ccc(F)c(-c3ccnn3C)c2)Cc2cnc([C@@](C)(O)C(F)(F)F)n21 [Example 64],5,7,–,–
Cc1c(C(=O)N2Cc3cnc([C@@](C)(O)C(F)(F)F)n3[C@@H](C)C2)ccnc1-c1ccc(C#N)cc1 [Example 65],4,5,–,–
C[C@H]1CN(C(=O)c2cc(-c3ccc(Cl)cn3)nn2C)Cc2cnc([C@@](C)(O)C(F)(F)F)n21 [Example 66],4,6,–,–
C[C@H]1CN(C(=O)c2cncc(-c3ccc(F)cc3C#N)c2)Cc2cnc([C@@](C)(O)C(F)(F)F)n21 [Example 72],7,9,–,–
"C[C@H]1CN(C(=O)c2cc(-c3ccc(C#N)cn3)nn2C)Cc2cnc([C@@](C)(O)C(F)(F)F)n21 [Example 73, 6-(1-methyl-5-((S)-5-methyl-3-((R)-1,1,1-trifluoro-2-hydroxypropan-2-yl)-5,6,7,8-tetrahydroimidazo[1,5-a]pyrazine-7-carbonyl)-1H-pyrazol-3-yl)nicotinonitrile]",6,7,–,–
C[C@H]1CN(C(=O)c2ccc(C#N)c(-n3cccn3)c2)Cc2cnc([C@@](C)(O)C(F)(F)F)n21 [Example 74],6,11,–,–
Cc1cc(C#N)ccc1-c1cc(C(=O)N2Cc3cnc([C@@](C)(O)C(F)(F)F)n3[C@@H](C)C2)n(C)n1 [Example 75],6,11,–,–
Cc1c(-c2ccc(C#N)cc2)nn(C)c1C(=O)N1Cc2cnc([C@@](C)(O)C(F)(F)F)n2[C@@H](C)C1 [Example 76],6,9,–,–
C[C@H]1CN(C(=O)c2cncc(-c3ccc(F)cc3)c2)Cc2cnc([C@@](C)(O)C(F)(F)F)n21 [Example 80],3,6,–,–
C[C@H]1CN(C(=O)c2cc(-c3ccc(F)cn3)nn2C)Cc2cnc([C@@](C)(O)C(F)(F)F)n21 [Example 81],5,7,–,–
C[C@H]1CN(C(=O)c2ccc(F)c(-c3ccncc3F)c2)Cc2cnc([C@@](C)(O)C(F)(F)F)n21 [Example 82],5,7,–,–
C[C@H]1CN(C(=O)c2ccc(F)c(-c3cncc(F)c3)c2)Cc2cnc([C@@](C)(O)C(F)(F)F)n21 [Example 83],5,11,–,–
C[C@H]1CN(C(=O)c2ccc(C#N)c(-n3cc(Cl)cn3)c2)Cc2cnc([C@@](C)(O)C(F)(F)F)n21 [Example 85],< 3,6,49,–
C[C@H]1CN(C(=O)c2cc(-c3ccc(F)cc3)ncc2F)Cc2cnc([C@@](C)(O)C(F)(F)F)n21 [Example 86],< 3,4,52,–
C[C@H]1CN(C(=O)c2ccnc(-c3ccc(F)cc3)c2F)Cc2cnc([C@@](C)(O)C(F)(F)F)n21 [Example 87],< 3,< 3,66,53
C[C@H]1CN(C(=O)C2CCC(n3cc(Cl)cn3)CC2)Cc2cnc([C@@](C)(O)C(F)(F)F)n21 (stereo partly shown) [Example 89],20,19,–,–
C[C@H]1CN(C(=O)C2(C)CN(c3ccc(F)cn3)C2)Cc2cnc([C@@](C)(O)C(F)(F)F)n21 [Example 90],66,45,–,–
C[C@H]1CN(C(=O)C2(C)CN(C3CC(F)(F)C3)C2)Cc2cnc([C@@](C)(O)C(F)(F)F)n21 [Example 91],49,28,–,–
C[C@H]1CN(C(=O)[C@H]2CCN(c3ccc(C#N)cn3)C2)Cc2cnc([C@@](C)(O)C(F)(F)F)n21 [Example 92],27,23,–,–
C[C@H]1CN(C(=O)c2ccc(N3CCN(C)CC3)cc2)Cc2cnc([C@@](C)(O)C(F)(F)F)n21 [Example 93],8,11,–,–
C[C@H]1CN(C(=O)c2cnc(C3CC3)nc2)Cc2cnc([C@@](C)(O)C(F)(F)F)n21 [Example 94],40,24,–,–

# Other lines, results leading:
IC50 (human PDHK1 (hPDHK1)) [nM],IC50 (human PDHK2 (hPDHK2)) [nM],inhibition at 0.003 µM (human PDHK1 (hPDHK1)) [%],"hPDHK2 inhibitory rate at the lowest concentration of the test compound (human PDHK2 (hPDHK2); lowest concentration of the test compound in the assay (<3 nmol/L), shown when IC50 value could not be calculated) [%]",SMILES
3,4,–,–,C[C@H]1CN(C(=O)c2ccc(F)c(-c3ccc(C#N)cn3)c2)Cc2cnc([C@@](C)(O)C(F)(F)F)n21 [Example 58]
4,3,–,–,Cc1cc(-c2ccc(F)cc2C#N)ncc1C(=O)N1Cc2cnc([C@@](C)(O)C(F)(F)F)n2[C@@H](C)C1 [Example 59]
3,4,–,–,C[C@H]1CN(C(=O)c2ccnc(-c3ccc(C#N)cc3F)c2)Cc2cnc([C@@](C)(O)C(F)(F)F)n21 [Example 62]
5,7,–,–,Cc1cc(C#N)ccc1-c1cc(C(=O)N2Cc3cnc([C@@](C)(O)C(F)(F)F)n3[C@@H](C)C2)ccn1 [Example 63]
5,7,–,–,C[C@H]1CN(C(=O)c2ccnc(-c3ccc(C#N)cc3)c2)Cc2cnc([C@@](C)(O)C(F)(F)F)n21 [Example 67]
4,6,–,–,"C[C@H]1CN(C(=O)c2cc(-c3ccc(C#N)cc3)ncc2F)Cc2cnc([C@@](C)(O)C(F)(F)F)n21 [Example 68, 4-(5-fluoro-4-((S)-5-methyl-3-((R)-1,1,1-trifluoro-2-hydroxypropan-2-yl)-5,6,7,8-tetrahydroimidazo[1,5-a]pyrazine-7-carbonyl)pyridin-2-yl)benzonitrile]"
5,8,–,–,C[C@H]1CN(C(=O)c2ccc(F)c(-c3ncc(F)cc3C#N)c2)Cc2cnc([C@@](C)(O)C(F)(F)F)n21 [Example 69]
3,6,–,–,C[C@H]1CN(C(=O)c2ccc(F)c(-c3ccc(F)cn3)c2)Cc2cnc([C@@](C)(O)C(F)(F)F)n21 [Example 70]
4,7,–,–,C[C@H]1CN(C(=O)c2cncc(-c3ccc(C#N)cc3F)c2)Cc2cnc([C@@](C)(O)C(F)(F)F)n21 [Example 71]
6,9,–,–,C[C@H]1CN(C(=O)c2ccc(C#N)c(-c3ccc(F)cn3)c2)Cc2cnc([C@@](C)(O)C(F)(F)F)n21 [Example 77]
4,7,–,–,C[C@H]1CN(C(=O)c2ccnc(-c3ccc(C#N)cc3)c2F)Cc2cnc([C@@](C)(O)C(F)(F)F)n21 [Example 78]
5,8,–,–,C[C@H]1CN(C(=O)c2cccc(-c3ccc(C#N)cn3)c2)Cc2cnc([C@@](C)(O)C(F)(F)F)n21 [Example 79]
5,11,–,–,C[C@H]1CN(C(=O)c2ccc(F)c(-c3ccncc3C#N)c2)Cc2cnc([C@@](C)(O)C(F)(F)F)n21 [Example 84]
3,4,–,–,C[C@H]1CN(C(=O)c2ccnc(-c3ccc(F)cc3F)c2)Cc2cnc([C@@](C)(O)C(F)(F)F)n21 [Example 88]
